# Source: patent US6750228B1, “Aromatic sulfone hydroxamic acid metalloprotease inhibitor” (priority 1997, dated 2004)
# Structures can show the parent of a compound that is named as a salt. Where two headings read alike, the source gives them in different places.
# Key:
# Test in all cases: biochemical
# [1] = target: T1, MMP-1 (Homo sapiens, UniProt P03956); conditions: read-out: MMP-1 IC50
# T1 construct: made in house; host or cells: transfected HT-1080 cells (provided by Dr. Harold Welgus, Washington University)
# T1 sequence (P03956 100-469): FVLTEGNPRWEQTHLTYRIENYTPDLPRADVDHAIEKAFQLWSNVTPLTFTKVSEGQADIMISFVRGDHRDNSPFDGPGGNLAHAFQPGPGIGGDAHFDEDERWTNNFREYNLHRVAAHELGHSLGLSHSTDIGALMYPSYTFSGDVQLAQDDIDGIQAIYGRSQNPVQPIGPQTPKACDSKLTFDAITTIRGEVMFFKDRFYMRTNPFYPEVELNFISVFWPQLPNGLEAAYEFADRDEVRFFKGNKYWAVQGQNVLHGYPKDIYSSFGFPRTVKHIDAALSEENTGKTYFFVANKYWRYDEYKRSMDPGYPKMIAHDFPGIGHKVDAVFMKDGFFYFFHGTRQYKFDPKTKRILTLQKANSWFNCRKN
# Procedure, shortened: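 APMA- or trypsin-activated human MMPs (MMP-1 from transfected HT-1080 cells, MMP-2 from transfected cells) preincubated with inhibitor in 1% DMSO at room temperature, then 4 μM MCA-Pro-Leu-Gly-Leu-Dpa-Ala-Arg-NH2 added in Tris/NaCl/CaCl2 buffer pH 7.5. IC50 from fluorescence reduction versus inhibitor concentration.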
# [2] = target: T2, MMP-13 (Homo sapiens, UniProt P45452); conditions: read-out: MMP-13 IC50
# T2 construct: made in house; host or cells: baculovirus / insect cells
# Procedure, shortened: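 APMA- or trypsin-activated enzymes were preincubated with inhibitor for 5 min at room temperature, then the fluorogenic substrate MCA-Pro-Leu-Gly-Leu-Dpa-Ala-Arg-NH2 was added to a final 4 μM.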
# [3] = target: T3, MMP-2 (Homo sapiens, UniProt P08253)
# T3 construct: made in house; provided by Dr. Gregory Goldberg, Washington University
# T3 sequence (P08253 110-660): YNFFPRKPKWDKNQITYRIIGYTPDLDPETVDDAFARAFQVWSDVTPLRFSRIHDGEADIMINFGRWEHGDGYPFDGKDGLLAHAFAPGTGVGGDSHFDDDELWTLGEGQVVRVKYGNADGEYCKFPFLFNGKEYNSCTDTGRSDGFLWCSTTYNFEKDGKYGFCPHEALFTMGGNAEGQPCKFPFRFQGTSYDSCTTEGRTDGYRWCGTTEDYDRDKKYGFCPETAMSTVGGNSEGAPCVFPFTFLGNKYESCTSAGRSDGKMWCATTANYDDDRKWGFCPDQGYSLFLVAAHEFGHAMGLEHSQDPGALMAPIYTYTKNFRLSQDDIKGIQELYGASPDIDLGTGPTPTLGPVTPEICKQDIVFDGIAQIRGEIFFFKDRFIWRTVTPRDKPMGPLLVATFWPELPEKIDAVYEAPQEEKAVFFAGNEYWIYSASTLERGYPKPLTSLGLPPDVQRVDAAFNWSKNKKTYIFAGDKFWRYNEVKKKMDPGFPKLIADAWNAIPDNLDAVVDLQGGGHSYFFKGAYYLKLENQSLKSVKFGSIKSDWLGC
# Procedure, shortened: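 Assay buffer 100 mM Tris-HCl, 100 mM NaCl, 10 mM CaCl2, pH 7.5. Activated MMP + inhibitor, 5 min RT; then methoxycoumarin peptide substrate, 4 μM final. Readout fluorescence; IC50 calculated.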
# [4] = recombinant human MMP-1, MCA peptide substrate 4 μM, pH 7.5, room temperature
# [5] = recombinant human MMP-13, MCA peptide substrate 4 μM, pH 7.5, room temperature
# [6] = recombinant human MMP-2, MCA peptide substrate 4 μM, pH 7.5, room temperature, read-out: MMP-2 IC50
Structure (SMILES),"IC50 [1, 4] [nM]","IC50 [2, 5] [nM]","IC50 [3, 6] [nM]",IC50 [1] [nM],IC50 [2] [nM],IC50 ([3]; read-out: MMP-2 IC50) [nM],IC50 ([3]; MMP-2 IC50 (nM)) [nM]
O=C(NO)C1(S(=O)(=O)c2ccc(N3CCCCCC3)cc2)CCOCC1 [Example 212],> 10000,160,240,–,–,–,–
CCCCCN(C)C1CCN(c2ccc(S(=O)(=O)C3(C(=O)NO)CCOCC3)cc2)CC1 [Example 597],> 10000,670,700,–,–,–,–
O=C(Nc1cccc(OC(F)(F)F)c1)C1CCN(c2ccc(S(=O)(=O)C3(C(=O)NO)CCOCC3)cc2)CC1 [Example 68],> 10000,13,1800,–,–,–,–
CCOc1ccc(C(=O)C2CCN(c3ccc(S(=O)(=O)C4(C(=O)NO)CCOCC4)cc3)CC2)cc1 [Example 791],> 10000,2,700,–,–,–,–
CC(C)OCc1ccc(COC2CCN(c3ccc(S(=O)(=O)C4(C(=O)NO)CCOCC4)cc3)CC2)cc1 [Example 554],> 10000,3.7,140,–,–,–,–
CC1CC(C)CN(C(=O)C2CCN(c3ccc(S(=O)(=O)C4(C(=O)NO)CCN(C(=O)CN5CCC(O)CC5)CC4)cc3)CC2)C1 (stereo not drawn) [Example 304],> 10000,30.6,7000,–,–,–,–
O=C(NO)C1(S(=O)(=O)c2ccc(N3CCC(OCc4cccnc4)CC3)cc2)CCOCC1 [Example 580],> 10000,37.2,700,–,–,–,–
O=C(Nc1cccc(F)c1)C1CCN(c2ccc(S(=O)(=O)C3(C(=O)NO)CCOCC3)cc2)CC1 [Example 71],> 10000,7.7,270,–,–,–,–
O=C(NO)C1(S(=O)(=O)c2ccc(N3CC[C@@H](OCc4ccc(F)cc4)C3)cc2)CCOCC1 [Example 531],> 10000,13,10,–,–,–,–
CC1CN(c2ccc(S(=O)(=O)C3(C(=O)NO)CCOCC3)cc2)CCC1OCc1ccc(F)cc1 (stereo not drawn) [Example 582],> 10000,30,1800,–,–,–,–
C=C(C)CC(=O)C1CCN(c2ccc(S(=O)(=O)C3(C(=O)NO)CCOCC3)cc2)CC1 [Example 759],> 10000,3,60.8,–,–,–,–
CCN(CC)CC(=O)N1CCC(C(=O)NO)(S(=O)(=O)c2ccc(N3CCC(C(=O)N4CC(C)CC(C)C4)CC3)cc2)CC1 (stereo not drawn) [Example 295],> 10000,50,> 10000,–,–,–,–
O=C(c1cccc(F)c1)C1CCN(c2ccc(S(=O)(=O)C3(C(=O)NO)CCOCC3)cc2)CC1 [Example 728],> 10000,9.4,106,–,–,–,–
O=CN1CCC(C(=O)NO)(S(=O)(=O)c2ccc(Oc3ccc(OC(F)(F)F)cc3)cc2)CC1 [Example 416],3000,0.4,0.2,–,–,–,–
"CC(=O)N1CCC(C(=O)NO)(S(=O)(=O)c2ccc(N3CCC(C(=O)Nc4ccccc4)CC3)cc2)CC1 [Example 245, 1-Acetyl-N-hydroxy-4-[[4-[4-[(phenylamino)carbonyl]-1-piperidinyl]phenyl]sulfonyl]-4-piperidinecarboxamide]",> 10000,20,800,–,–,–,–
O=C(NO)C1(S(=O)(=O)c2ccc(N3CCC(O)CC3)cc2)CCOCC1 [Example 564],> 10000,150,550,–,–,–,–
"COCCN1CCC(C(=O)NO)(S(=O)(=O)c2ccc(N3CCC(C(=O)Nc4cccc(OC(F)(F)F)c4)CC3)cc2)CC1 [Example 249, N-Hydroxy-1-(2-methoxyethyl)-4-[[4-[4-[[[3-(trifluoromethoxy)phenyl]amino]carbonyl]-1-piperidinyl]phenyl]sulfonyl]-4-piperidinecarboxamide, Monohydrochloride]",> 10000,13,235,–,–,–,–
O=C(NO)C1(S(=O)(=O)c2ccc(N3CCC(OCc4ccc(COCC(F)(F)C(F)(F)C(F)(F)F)cc4)CC3)cc2)CCOCC1 [Example 609],> 10000,30.6,2800,–,–,–,–
O=C(c1ccc(OC(F)(F)F)cc1)C1CCN(c2ccc(S(=O)(=O)C3(C(=O)NO)CCOCC3)cc2)CC1 [Example 726],> 10000,15.8,250,–,–,–,–

Structure (SMILES),"IC50 [1, 4] [nM]","IC50 [2, 5] [nM]","IC50 [3, 6] [nM]",IC50 [1] [nM],IC50 [2] [nM],IC50 ([3]; read-out: MMP-2 IC50) [nM],IC50 ([3]; MMP-2 IC50 (nM)) [nM]
CC1CC(C)CN(C(=O)C2CCN(c3ccc(S(=O)(=O)C4(C(=O)NO)CCN(C(=O)CNCc5cccs5)CC4)cc3)CC2)C1 (stereo not drawn) [Example 282],> 10000,14.8,9000,–,–,–,–
CC1CC(C)CN(C(=O)C2CCN(c3ccc(S(=O)(=O)C4(C(=O)NO)CCSCC4)cc3)CC2)C1 (stereo not drawn) [Example 162],–,–,–,> 10000,27.8,7000,–
O=C(NO)C1(S(=O)(=O)c2ccc(Oc3ccc(OC(F)(F)F)cc3)cc2)CCN(C(=S)NCCN2CCCCC2)CC1 [Example 200],3000,0.2,< 0.1,–,–,–,–
O=C(NO)C1(S(=O)(=O)c2ccc(N3CCC(Oc4ccccc4F)CC3)cc2)CCOCC1 [Example 547],> 10000,5,64.7,–,–,–,–
O=C(NO)C1(S(=O)(=O)c2ccc(Oc3ccc(OC(F)(F)F)cc3)cc2)CCN(S(=O)(=O)c2ccccc2)CC1 [Example 194],> 7300,0.3,< 0.1,–,–,–,–
O=C(NO)C1(S(=O)(=O)c2ccc(Oc3ccc(C(F)(F)F)cc3)cc2)CCN(c2ncccc2[N+](=O)[O-])CC1 [Example 374],> 10000,3.3,4,–,–,–,–
O=C(C1CCN(c2ccc(S(=O)(=O)C3(C(=O)NO)CCOCC3)cc2)CC1)N1CCN(c2ccc(F)cc2)CC1 [Example 25],–,–,–,> 10000,6,–,1600
CN(C)CCN(C)C(=O)C1CCN(c2ccc(S(=O)(=O)C3(C(=O)NO)CCOCC3)cc2)CC1 [Example 51],> 10000,370,7000,–,–,–,–
CC(C)(C)OC1CCN(c2ccc(S(=O)(=O)C3(C(=O)NO)CCOCC3)cc2)CC1 [Example 693],> 10000,210,1900,–,–,–,–
Cc1cccc(COC2CCC(Oc3ccc(S(=O)(=O)C4(C(=O)NO)CCOCC4)cc3)C2)c1 (stereo not drawn) [Example 706],> 10000,4.3,40,–,–,–,–
O=C(c1ccc(C(F)(F)F)cc1)C1CCN(c2ccc(S(=O)(=O)C3(C(=O)NO)CCOCC3)cc2)CC1 [Example 729],> 10000,14.8,240,–,–,–,–
CC1CC(C)CN(C(=O)C2CCN(c3ccc(S(=O)(=O)C4(C(=O)NO)CCN(C(=O)CN(CCCN(C)C)CCCN(C)C)CC4)cc3)CC2)C1 (stereo not drawn) [Example 302],> 10000,175,> 10000,–,–,–,–
O=C(NO)C1(S(=O)(=O)c2ccc(Oc3ccc(OC(F)(F)F)cc3)cc2)CCN(Cc2cc(Cl)cc(Cl)c2)CC1 [Example 348],> 10000,16.5,0.8,–,–,–,–
O=C(NO)C1(S(=O)(=O)c2ccc(N3CCC(OCc4ccccc4Cl)CC3)cc2)CCOCC1 [Example 574],> 10000,10.6,220,–,–,–,–
O=C(NO)C1(S(=O)(=O)c2ccc(N3CCCN(c4ccc(OC(F)(F)F)cc4)CC3)cc2)CCOCC1 [Example 708],> 10000,114,3000,–,–,–,–
CCCCc1ccc(OC2CCN(c3ccc(S(=O)(=O)C4(C(=O)NO)CCOCC4)cc3)CC2)cc1 [Example 642],> 10000,2.2,1.1,–,–,–,–
O=C(NO)C1(S(=O)(=O)c2ccc(N3CCN(c4ccccc4Cl)CC3)cc2)CCOCC1 [Example 88],> 10000,9,40,–,–,–,–
O=C(NO)C1(S(=O)(=O)c2ccc(N3CCC(Oc4ccccc4[N+](=O)[O-])CC3)cc2)CCOCC1 [Example 552],> 10000,12.8,140,–,–,–,–
COCCN1CCC(C(=O)NO)(S(=O)(=O)c2ccc(N3CCC(OCc4ccc(F)cc4C(F)(F)F)CC3)cc2)CC1 [Example 447],> 10000,23.9,155,–,–,–,–
